Assay type in all cases: cell-based
Experiment [1] concerns Enterococcus faecalis ATCC 29212. Put plainly: Broth microdilution MIC, E. faecalis ATCC 29212. The conditions noted are these: ATCC29212, broth microdilution, 37° C., 20 hours, read-out: MIC E. faecalis ATCC 29212. An outline of the steps:
(§1)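 Broth microdilution in strain-specific test medium with ~5.0×10^5 cfu/ml inoculum, 1% DMSO and two-fold compound dilutions from 64 to 0.0625 μg/ml. Plates were held 20 hours at 37° C in ambient air. S. pneumoniae colonies were grown beforehand on blood agar in 5% CO2.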
(In general: Dilution methods test growth across graded concentrations, often in twofold steps.)

For experiment [2], the system named is Streptococcus pneumoniae ATCC 49619. The experiment is described as follows: Broth microdilution MIC, S. pneumoniae ATCC 49619. As to conditions: ATCC49619, broth microdilution, 37° C., 20 hours, read-out: MIC S. pneumoniae ATCC 49619. An outline of the steps: as §1
Experiment [3] relates to Enterococcus faecium ATCC 700221 (VRE). The experiment is described as follows: Broth microdilution MIC, E. faecium ATCC 700221 (VRE). As to conditions: Enterococcus faecium; broth microdilution, 37° C., 20 hours; read-out: MIC E. faecium ATCC 700221 (VRE). The procedure, abridged:
as §1

Experiment [4] concerns Escherichia coli ATCC 25922. Put plainly: Broth microdilution MIC, E. coli ATCC 25922 (MHIIB w & w/o 4 mM EDTA). The conditions noted are these: broth microdilution, 37° C., 20 hours; for MIC: Escherichia coli, ATCC25922, without EDTA, read-out: MIC E. coli ATCC 25922; for MIC E. coli ATCC 25922 + 4 mM EDTA: with 4 mM EDTA. An outline of the steps: as §1
The test system of experiment [5] is Bacillus subtilis ATCC 6633. Put plainly: Broth microdilution MIC, B. subtilis ATCC 6633. The conditions noted are these: ATCC6633, broth microdilution, 37° C., 20 hours, read-out: MIC B. subtilis ATCC 6633. An outline of the steps:
as §1

Experiment [6] deals with Staphylococcus aureus NRS384 (MRSA). The experiment is described as follows: Broth microdilution MIC, S. aureus NRS384 (MRSA). As to conditions: Staphylococcus aureus; broth microdilution, 37° C., 20 hours; read-out: MIC NRS 384 (MRSA). An outline of the steps:
as §1

Experiment [7] relates to Staphylococcus aureus ATCC 29213 (MSSA). The experiment is described as follows: Broth microdilution MIC, S. aureus ATCC 29213 (MSSA). The conditions noted are these: broth microdilution, 37° C., 20 hours, read-out: MIC S. aureus ATCC 29213 (MSSA). An outline of the steps:
as §1

The values that follow come from US10723741B1, “DNA polymerase IIIC inhibitors and use thereof” (Acurx Pharmaceuticals, LLC, priority 2018, dated 2020).

Structures are written as SMILES. ≈ marks a conversion by molar mass, not a printed value. Bounds are passed on as bounds.

The MIC is the lowest concentration found to suppress growth. Regarding `COCCN1CC(Cn2ncc3nc(NCc4ccc(Cl)c(Cl)c4)[nH]c(=O)c32)CC1=O` (stereo not drawn) [Compound 176, 5-((3,4-dichlorobenzyl)amino)-1-((1-(2-methoxyethyl)-5-oxopyrrolidin-3-yl)methyl)-1H-pyrazolo[4,3-d]pyrimidin-7(6H)-one], the minimal inhibitory concentration (MIC) in experiment [1] was 8 µg/mL (≈ 17.2 µM); in experiment [2], 4 µg/mL (≈ 8.6 µM); in experiment [3], 4 µg/mL (≈ 8.6 µM); in experiment [4] it was more than 64 µg/mL; in experiment [5] it was 4 µg/mL (≈ 8.6 µM); in experiment [6], 16 µg/mL (≈ 34.4 µM). Besides, the minimum inhibitory concentration (MIC) in experiment [7] is 16 µg/mL (≈ 34.4 µM). For the same molecule, the “MIC E. coli ATCC 25922 + 4 mM EDTA” value in experiment [4] was more than 64 µg/mL.
On to `O=C(O)CCCCn1ncc2nc(NCc3ccc(Cl)c(Cl)c3)[nH]c(=O)c21` [Compound 219, 5-[5-[(3,4-dichlorophenyl)methylamino]-7-oxo-6H-pyrazolo[4,3-d]pyrimidin-1-yl]pentanoic Acid], for which the minimum inhibitory concentration (MIC) in experiment [1] was 16 µg/mL (≈ 39 µM); in experiment [2], 4 µg/mL (≈ 9.75 µM); in experiment [3], 4 µg/mL (≈ 9.75 µM); in experiment [4], more than 64 µg/mL; in experiment [5] it was 32 µg/mL (≈ 78 µM); in experiment [6], 16 µg/mL (≈ 39 µM). The MIC in experiment [7] turned out to be 32 µg/mL (≈ 78 µM). Moreover, the “MIC E. coli ATCC 25922 + 4 mM EDTA” value in experiment [4] was more than 64 µg/mL.
In the case of `O=C(NCCn1ncc2nc(NCc3ccc(Cl)c(Cl)c3)[nH]c(=O)c21)c1cc(O)nnc1Cl` [Compound 84, 3-chloro-N-(2-(5-((3,4-dichlorobenzyl)amino)-7-oxo-6,7-dihydro-1H-pyrazolo[4,3-d]pyrimidin-1-yl)ethyl)-6-hydroxypyridazine-4-carboxamide], the MIC is 64 µg/mL (≈ 126 µM) in experiment [1]; 16 µg/mL (≈ 31.4 µM) in experiment [2]; 32 µg/mL (≈ 62.8 µM) in experiment [3]; more than 64 µg/mL in experiment [4]; 64 µg/mL (≈ 126 µM) in experiment [5]; 64 µg/mL (≈ 126 µM) in experiment [6]. Moreover, in experiment [7], the MIC was 64 µg/mL (≈ 126 µM). For the same molecule, the “MIC E. coli ATCC 25922 + 4 mM EDTA” value in experiment [4] was more than 64 µg/mL.
As to `Cn1ncc2nc(NCc3ccc(Cl)cc3Cl)[nH]c(=O)c21` [Compound 28, 5-((2,4-Dichlorobenzyl)amino)-1-methyl-1H-pyrazolo[4,3-d]pyrimidin-7(6H)-one], the MIC was more than 64 µg/mL in experiment [1]; 64 µg/mL (≈ 197 µM) in experiment [2]; 16 µg/mL (≈ 49.4 µM) in experiment [3]; more than 64 µg/mL in experiment [4]; 64 µg/mL (≈ 197 µM) in experiment [5]; more than 64 µg/mL in experiment [6]. Besides, the MIC in experiment [7] was more than 64 µg/mL. In addition, the “MIC E. coli ATCC 25922 + 4 mM EDTA” value in experiment [4] was found to be 64 µg/mL.
Regarding `Cn1ncc2nc(NCCc3ccc(Cl)c(Cl)c3)[nH]c(=O)c21` [Compound 8, 5-((3,4-Dichlorophenethyl)amino)-1-methyl-1H-pyrazolo[4,3-d]pyrimidin-7(6H)-one], the minimal inhibitory concentration (MIC) in experiment [1], in experiment [2], in experiment [3], in experiment [4], in experiment [5] and in experiment [6] was more than 64 µg/mL in each case. The MIC in experiment [7] is more than 64 µg/mL. Besides, the “MIC E. coli ATCC 25922 + 4 mM EDTA” value in experiment [4] was more than 64 µg/mL.
On to `COc1ccnc(C(=O)N2CCC(n3ncc4nc(NCc5ccc(Cl)c(Cl)c5)[nH]c(=O)c43)CC2)c1.Cl` [Compound 263, 5-((3,4-dichlorobenzyl)amino)-1-(1-(4-methoxypicolinoyl)piperidin-4-yl)-1H-pyrazolo[4,3-d]pyrimidin-7(6H)-one hydrochloride], for which the MIC in experiment [1] is 4 µg/mL; in experiment [2], 2 µg/mL; in experiment [3], 1 µg/mL; in experiment [4], more than 64 µg/mL; in experiment [5], 1 µg/mL; in experiment [6], 2 µg/mL. Besides, the MIC in experiment [7] was 4 µg/mL. Besides, in experiment [4], the “MIC E. coli ATCC 25922 + 4 mM EDTA” value is more than 64 µg/mL.
On to `COc1ccncc1C(=O)N1CCC(n2ncc3nc(NCc4ccc(Cl)c(Cl)c4)[nH]c(=O)c32)CC1.Cl` [Compound 266, 5-((3,4-Dichlorobenzyl)amino)-1-(1-(4-methoxynicotinoyl)piperidin-4-yl)-1H-pyrazolo[4,3-d]pyrimidin-7(6H)-one hydrochloride], for which the minimum inhibitory concentration (MIC) in experiment [1] was 4 µg/mL; in experiment [2], 4 µg/mL; in experiment [3], 2 µg/mL; in experiment [4], more than 64 µg/mL; in experiment [5], 2 µg/mL; in experiment [6], 8 µg/mL. Also, the MIC in experiment [7] came out at 8 µg/mL. Further, the “MIC E. coli ATCC 25922 + 4 mM EDTA” value in experiment [4] was more than 64 µg/mL.
Turning to `O=c1[nH]c(NCc2ccc(Cl)c(Cl)c2)nc2cnn(CCN3CCNCC3)c12` [Compound 74, 5-((3,4-dichlorobenzyl)amino)-1-(2-(piperazin-1-yl)ethyl)-1H-pyrazolo[4,3-d]pyrimidin-7(6H)-one], the MIC was 64 µg/mL (≈ 152 µM) in experiment [1]; 16 µg/mL (≈ 37.9 µM) in experiment [2]; 16 µg/mL (≈ 37.9 µM) in experiment [3]; more than 64 µg/mL in experiment [4]; 8 µg/mL (≈ 18.9 µM) in experiment [5]; 64 µg/mL (≈ 152 µM) in experiment [6]. The MIC in experiment [7] turned out to be 32 µg/mL (≈ 75.8 µM). Besides, the “MIC E. coli ATCC 25922 + 4 mM EDTA” value in experiment [4] is more than 64 µg/mL.
`COCCOCCn1ncc2nc(NCc3ccc(Cl)c(Cl)c3)[nH]c(=O)c21` [Compound 136, 5-((3,4-Dichlorobenzyl)amino)-1-(2-(2-methoxyethoxy)ethyl)-1H-pyrazolo[4,3-d]pyrimidin-7(6H)-one]: the MIC was 4 µg/mL (≈ 9.7 µM) in experiment [1]; 2 µg/mL (≈ 4.85 µM) in experiment [2]; 2 µg/mL (≈ 4.85 µM) in experiment [3]; more than 64 µg/mL in experiment [4]; 1 µg/mL (≈ 2.43 µM) in experiment [5]; 4 µg/mL (≈ 9.7 µM) in experiment [6]. In addition, in experiment [7], the MIC was 4 µg/mL (≈ 9.7 µM). Also, the “MIC E. coli ATCC 25922 + 4 mM EDTA” value in experiment [4] was more than 64 µg/mL.
As for `O=c1[nH]c(NCc2ccc(Cl)c(Cl)c2)nc2cnn(CC3COC3)c12` [Compound 118, 5-((3,4-Dichlorobenzyl)amino)-1-(oxetan-3-ylmethyl)-1H-pyrazolo[4,3-d]pyrimidin-7(6H)-one], the MIC in experiment [1] is 2 µg/mL (≈ 5.26 µM); in experiment [2] it was 2 µg/mL (≈ 5.26 µM); in experiment [3] it was 1 µg/mL (≈ 2.63 µM); in experiment [4] it was more than 64 µg/mL; in experiment [5], 0.5 µg/mL (≈ 1.31 µM); in experiment [6], 2 µg/mL (≈ 5.26 µM). Moreover, in experiment [7], the MIC was 2 µg/mL (≈ 5.26 µM). Also, the “MIC E. coli ATCC 25922 + 4 mM EDTA” value in experiment [4] was more than 64 µg/mL.
Turning to `COC(=O)c1nn(C)c2c(=O)[nH]c(NCc3ccc(Cl)c(Cl)c3)nc12` [Compound 40, Methyl 5-((3,4-dichlorobenzyl)amino)-1-methyl-7-oxo-6,7-dihydro-1H-pyrazolo[4,3-d]pyrimidine-3-carboxylate], the minimal inhibitory concentration (MIC) in experiment [1], in experiment [2], in experiment [3], in experiment [4], in experiment [5] and in experiment [6] was more than 64 µg/mL throughout. In addition, in experiment [7], the MIC was more than 64 µg/mL. In experiment [4], the “MIC E. coli ATCC 25922 + 4 mM EDTA” value is more than 64 µg/mL.
For the molecule `CC(C)(C)NCCn1ncc2nc(NCc3ccc(Cl)c(Cl)c3)[nH]c(=O)c21` [Compound 62, 1-[2-(tert-Butylamino)ethyl]-5-[(3,4-dichlorophenyl)methylamino]-6H-pyrazolo[4,3-d]pyrimidin-7-one], the MIC in experiment [1] was 8 µg/mL (≈ 19.5 µM); in experiment [2], 4 µg/mL (≈ 9.77 µM); in experiment [3], 8 µg/mL (≈ 19.5 µM); in experiment [4], more than 64 µg/mL; in experiment [5] it was 4 µg/mL (≈ 9.77 µM); in experiment [6] it was 16 µg/mL (≈ 39.1 µM). In addition, the MIC in experiment [7] was 16 µg/mL (≈ 39.1 µM). Further, the “MIC E. coli ATCC 25922 + 4 mM EDTA” value in experiment [4] worked out at 32 µg/mL.
